Assay results: article PMC3244823 (2011)

Molecular target: Pin1 (murine embryonic fibroblasts) (Mus musculus, UniProt Q9QUR7)
Assay: EGCG-Sepharose pull-down from MEF lysates
Type: cell-based

Pin1 (murine embryonic fibroblasts), sequence (Q9QUR7 whole entry): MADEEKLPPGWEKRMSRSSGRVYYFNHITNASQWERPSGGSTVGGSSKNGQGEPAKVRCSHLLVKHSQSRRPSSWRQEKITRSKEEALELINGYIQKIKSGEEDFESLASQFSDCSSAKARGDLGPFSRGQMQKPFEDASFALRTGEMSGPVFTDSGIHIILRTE

Ki: 45 µM
SMILES: O=C(O[C@@H]1Cc2c(O)cc(O)cc2O[C@@H]1c1cc(O)c(O)c(O)c1)c1cc(O)c(O)c(O)c1 [EGCG, epigallocatechin-3-gallate]
